Counter-ions that a name gives are not always drawn.
Legend:
[1] = system: children with non-syndromic autism spectrum disorder (ASD) and language impairment; experiment: Randomized placebo-controlled trial: Ohio Autism Clinical Impression Scale (OACIS); format: in vivo, human; settings: lower = less severity
Description: The Ohio Autism Clinical Impression Scale (“OACIS”) is an observer-rated scale sensitive to clinically meaningful changes in ASD symptoms. […] Severity of each symptom was rated by the first author at baseline and at the final assessment by observing the entire assessment of verbal communication. In validation studies a 0.5-point change was considered clinically meaningful. This two-arm double-blind randomized placebo-controlled parallel study with a 1:1 allocation was performed at Arkansas Children's Research Institute (Little Rock, Ark., USA) from 4 Jun. 2012 to 22 Nov. 2013. Those confirmed to have language impairment were randomized to the folinic acid or placebo group and a fasting blood sample was obtained. Randomization was performed using a random number generator with a block size of four. The research pharmacists had exclusive access to the randomization allocation. After breakfast, the participants returned for language, developmental and behavioral assessments. Following these assessments the family was given the 12 weeks of the intervention and was instructed on its administration. Language, developmental and behavioral assessments were repeated after 12 weeks of treatment. The target dose of the intervention (INN: DL folinic acid calcium salt; USAN: leucovorin calcium) was 2 mg kg^−1 per day (maximum 50 mg per day) in two equally divided doses with half of the target dose given during the first 2 weeks. Dye-free, milk-product-free, vegetarian capsules were provided in three strengths (5, 10 and 25 mg) by Lee Silsby Compounding Pharmacy (Cleveland Heights, Ohio, USA). Certificate of analysis was provided for each capsule strength by an independent analytical service (Eagle Analytical Services, Houston, Tex., USA) for each batch of capsules produced. In all cases, potency was at least 99%. Secondary outcomes. Secondary outcome measures included the Ohio Autism Clinical Impression Scale (OACIS), Vineland Adaptive Behavior Scale 2nd Edition (VABS) Survey Interview Form and several questionnaires. Parents and teachers were asked to complete the Aberrant Behavior Checklist (ABC), Social Responsiveness Scale (SRS) and Behavioral Assessment System for Children 2nd Edition (BASC). Only parents were asked to complete the Autism Impact Measure (AIM) and Autism Symptoms Questionnaire (ASQ). Secondary outcome measures were analyzed using the mixed-model regression. Because of the large number of secondary outcomes, correction for multiple comparisons was conducted using the false discovery rate.

[2] = system: children with non-syndromic autism spectrum disorder (ASD) and language impairment; experiment: Randomized placebo-controlled trial: Autism Impact Measure (AIM); format: in vivo, human; settings: lower = less impact
Description: The Autism Impact Measure (“AIM”) is a 45-item parent-reported measure of the frequency and impact of core ASD symptoms during the past 2 weeks using two 5-point scales of increasing severity ranging from 1 to 5.51 The Frequency and Impact scores range 45-225. This two-arm double-blind randomized placebo-controlled parallel study with a 1:1 allocation was performed at Arkansas Children's Research Institute (Little Rock, Ark., USA) from 4 Jun. 2012 to 22 Nov. 2013. Parent and teacher questionnaires were requested at baseline and 6 and 12 weeks after starting treatment. Parents were asked to deliver baseline questionnaires to teachers or therapists. After the first visit, questionnaires were mailed to the parents and teachers at least 1 week prior to the target date of completion. Parents were asked to bring the completed teacher and parent 12-week questionnaires to the final assessment. Other questionnaires were returned in a preaddressed postage-paid envelope. The target dose of the intervention (INN: DL folinic acid calcium salt; USAN: leucovorin calcium) was 2 mg kg^−1 per day (maximum 50 mg per day) in two equally divided doses with half of the target dose given during the first 2 weeks. Dye-free, milk-product-free, vegetarian capsules were provided in three strengths (5, 10 and 25 mg) by Lee Silsby Compounding Pharmacy (Cleveland Heights, Ohio, USA). Certificate of analysis was provided for each capsule strength by an independent analytical service (Eagle Analytical Services, Houston, Tex., USA) for each batch of capsules produced. In all cases, potency was at least 99%. Secondary outcomes. Secondary outcome measures included the Ohio Autism Clinical Impression Scale (OACIS), Vineland Adaptive Behavior Scale 2nd Edition (VABS) Survey Interview Form and several questionnaires. Parents and teachers were asked to complete the Aberrant Behavior Checklist (ABC), Social Responsiveness Scale (SRS) and Behavioral Assessment System for Children 2nd Edition (BASC). Only parents were asked to complete the Autism Impact Measure (AIM) and Autism Symptoms Questionnaire (ASQ). Secondary outcome measures were analyzed using the mixed-model regression. Because of the large number of secondary outcomes, correction for multiple comparisons was conducted using the false discovery rate.

[3] = 2 mg kg^−1 per day, 12 weeks, baseline 4.4
[4] = vs placebo, mixed-model regression

Nc1nc2c(c(=O)[nH]1)N(C=O)C(CNc1ccc(C(=O)N[C@@H](CCC(=O)O)C(=O)O)cc1)CN2 (mixture of isomers) [Folinic acid, DL folinic acid calcium salt]
OACIS Sensory sensitivity, 12-week assessment mean ([1]; 2 mg kg^−1 per day, 12 weeks, baseline 1.6): 1.4 Severity
OACIS Restricted interest, 12-week assessment mean ([1]; 2 mg kg^−1 per day, 12 weeks, baseline 2.3): 2.0 Severity
OACIS Anxiety, 12-week assessment mean ([1]; 2 mg kg^−1 per day, 12 weeks, baseline 2.5): 2.3 Severity
OACIS Repetitive behavior, 12-week assessment mean ([1]; 2 mg kg^−1 per day, 12 weeks, baseline 3.2): 2.5 Severity
OACIS Non-verbal communication, 12-week assessment mean ([1]; 2 mg kg^−1 per day, 12 weeks, baseline 3.6): 3.3 Severity
OACIS Aberrant behavior, 12-week assessment mean ([1]; 2 mg kg^−1 per day, 12 weeks, baseline 3.8): 3.4 Severity
OACIS Hyperactivity, 12-week assessment mean ([1]; 2 mg kg^−1 per day, 12 weeks, baseline 4.1): 3.8 Severity
OACIS Social, 12-week assessment mean ([1]; 2 mg kg^−1 per day, 12 weeks, baseline 4.3): 3.8 Severity
OACIS Autistic behavior, 12-week assessment mean [1, 3]: 4.0 Severity
OACIS Verbal communication, 12-week assessment mean [1, 3]: 3.8 Severity
OACIS Aberrant behavior, estimated effect [1, 4]: −0.3 Severity
OACIS Anxiety, estimated effect [1, 4]: −0.1 Severity
OACIS Autistic behavior, estimated effect [1, 4]: −0.2 Severity
OACIS Hyperactivity, estimated effect [1, 4]: −0.3 Severity
OACIS Non-verbal communication, estimated effect [1, 4]: −0.0 Severity
OACIS Repetitive behavior, estimated effect [1, 4]: −0.4 Severity
OACIS Restricted interest, estimated effect [1, 4]: −0.2 Severity
OACIS Sensory sensitivity, estimated effect [1, 4]: −0.3 Severity
OACIS Social, estimated effect [1, 4]: −0.1 Severity
OACIS Verbal communication, estimated effect [1, 4]: −0.2 Severity
AIM Impact, 12-week assessment mean ([2]; 2 mg kg^−1 per day, 12 weeks, baseline 105): 87 Raw Scores
AIM Frequency, 12-week assessment mean ([2]; 2 mg kg^−1 per day, 12 weeks, baseline 135): 114 Raw Scores
AIM Frequency, estimated effect [2, 4]: −2.2 Raw Scores
AIM Impact, estimated effect [2, 4]: 3.4 Raw Scores

From patent US20190111059A1, “COMPOSITIONS AND METHODS FOR TREATING AUTISM SPECTRUM DISORDER” (Marinus Pharmaceuticals, Inc., priority 2017, published 2019)
